Assay results from patent publication US5180742A, “Quinone derivatives, their production and use” (Takeda Chemical Industries, Ltd., priority 1984, dated 1993).

What was measured:
[1] = system: LTD4-induced bronchoconstriction; assay: Effect on LTD4-induced bronchoconstriction in guinea pigs; assay type: in vivo
Method: Effect on LTD4 -Induced Brochoconstriction in Guinea Pigs
Bronchoconstriction in guinea pigs was measured by the method of Konzett-Rossler[Naunyn-Schmiedeberg's Arch. exp. Path. Pharmak., 195, 71-74(1940)]. The animals were anesthetized with urethane (1.5 g/kg, intraperitoneally) and the trachea was cannulated. The animals were artificially ventilated by means of a respirator (Harvard apparatus rodent respirator) at a rate of 70 strokes/min and a constant volume of 5-7 ml. Inflation pressure was kept constantly at 10 cm H2 O. Changes in overflow of air from a side-arm of the cannula were recorded on Rectigraph-8S via a bronchospasm transducer for 15 min. LTD4 (10 μg/kg) was given into the […] through an indwelling cannula. Each specimen suspended in a 5% gum arabic solution was also given through the same cannula 1 or 24 hrs before the LTD4 administraction.

[2] = system: Fe^3+ -NTA-induced injury of rat kidney; assay: Inhibitory effect on Fe3+-NTA-induced injury of rat kidney; assay type: in vivo, Wistar rats; details: 20 mg/kg oral once a day; for body weight gain: control 9.8 ± 5.4, normal 68.3 ± 2.3; for Urinary volume: control 20, normal 6.8; for Urinary protein: control 25.1, normal 5.1
Method: Ferric Nitrilotriacetate (Fe^3+ -NTA)-Induced Injury of Rat Kidney
Male Wistar rats of 4 weeks old weighing about 80 g were used. Injury of kidney was induced by the method of Awai et al. [Amer. J. Pathol., 95, 663-674 (1979)]. The mixture of ferric nitrate and NTA as a ratio of 1:4 was intraperitoneally given: iron of 5 mg/kg for 3 days followed 10 mg/kg for 9 days. Twelve days later, the animals were killed. Body weight gain, urinary volume, urinary protein and wet and dry weights of kidney were measured. Drugs were suspended in a 5% gum arabic solution and given orally once a day in a dose of 20 mg/kg.

[3] = system: vascular permeability during early response of rat reversed passive Arthus pleurisy; assay: Effects on vascular permeability in rat reversed passive Arthus pleurisy; assay type: in vivo
Method: (§1) Effects on Increased Vascular Permeability and Slow Reacting Substance of Anaphylaxis (SRS-A) Generation in Rat Reversed Passive Arthus Pleurisy
(§2) The rat reversed passive Arthus pleurisy was induced by the method of Yamamoto et al. Agents Actions, 5, 374-377 (1975)]. Rats were given 1 ml of saline containing 5 mg of egg albumin intravenously followed 0.2 ml of rabbit anti-agg albumin antiserum injected into the pleural cavity. Just after that, 0.5 ml of saline contained 1% Evans blue was administered intravenously to the rats. 30 Minutes later, the animals were killed by bleeding, and the pleural cavity was rinsed with 2 ml of saline. The concentrations of the dye in the pleural exudate and the peripheral blood were measured to calculate the volume of serum infiltrated into the pleural cavity. The vascular permeability (dye concentration in pleural cavity/dye concentration in peripheral blood) was expressed as μl serum/30 min. On the other hand, the amount of SRS-A generated in the pleural cavity was determined by the following procedures. 30 Minutes after induction of the pleurisy, the aminals were killed by bleeding and the pleural cavity was rinsed with 2 ml of saline. 9 Milliliter of cold absolute ethanol were immediately added to the rinsed solution. The mixture was allowed to stand at 4° C. for 30 min. After the mixture was centrifuged at 3000 r.p.m. for 10 min, the supernatant was concentrated by evaporation. The resulting residue was dissolved in 0.5 ml of saline. The amount of SRS-A generated was bioassayed using guinea pig ileum.

[4] = system: SRS-A generation in rats pleural exudate; assay: Effects on SRS-A generation in pleural exudate in rat reversed passive Arthus pleurisy; assay type: in vivo
Method: as §1, §2

[5] = system: O2^- production in guinea pigs peritoneal macrophages; assay: Inhibitory effect on O2- production in guinea pig peritoneal macrophages (chemiluminescence); assay type: cell-based, guinea pig (Hartley); details: Cavia porcellus, Peritoneal macrophage, 3 experiments; for inhibition at 100 µM: 10^-4 M; for inhibition at 10 µM: 10^-5 M; for inhibition at 1 µM: 10^-6 M
Method: Superoxide (O2^-) Production in Guinea Pig Peritoneal Macrophages
Male Hartley guinea pigs weighing 400-450 g were given intraperitoneally 5 ml of liquid paraffin. Four days later, 15 ml of Hank's buffer were administered into the peritoneal cavity for harvest of peritoneal cells. Macrophages in the peritoneal cells were purified by the method of Wood, P. R. [J. Immunol. Methods, 28, 117-124 (1979)].
The purity of macrophages was more than 95%. The reaction mixture contained 75 μl of macrophages (1×10^7 cells/ml), 5 μl of luminol, 10 μl of phorbol myristate acetate and 10 μl of drugs in a total volume of 100 μl. O2^- Product was assayed by chemiluminescence. Drugs were dissolved in a 10% dimethyl sulfoxide.

SMILES | % Inhibition of LTD4-induced bronchoconstriction ([1]; 0.313 mg/kg, 1 hr. before LTD4) [%] | % Inhibition of LTD4-induced bronchoconstriction ([1]; 1.25 mg/kg, 1 hr. before LTD4) [%] | % Inhibition of LTD4-induced bronchoconstriction ([1]; 5 mg/kg, 1 hr. before LTD4) [%] | % Inhibition of LTD4-induced bronchoconstriction ([1]; 5 mg/kg, 24 hrs. before LTD4) [%] | Urinary protein (% inhibition) [2] [%] | Urinary volume (% Inhibition) [2] [%] | Water content in kidney (% Inhibition) [2] [%] | body weight gain [2] [g] | Urinary volume [2] [mL/day] | Urinary protein [2] [mg/day] | % Inhibition of vascular permeability ([3]; 0.1 mg/rat) [%] | % Inhibition of vascular permeability ([3]; 1 mg/rat) [%] | % Inhibition of SRS-A generation in pleural exudate ([4]; 0.1 mg/rat) [%] | % Inhibition of SRS-A generation in pleural exudate ([4]; 1 mg/rat) [%] | inhibition at 100 µM [5] [%] | inhibition at 10 µM [5] [%] | inhibition at 1 µM [5] [%]
CC1=C(C)C(=O)C(C(CCCCCC(=O)O)c2ccccc2)=C(C)C1=O (stereo not shown) [Compound No. 50, 7-(3,5,6-trimethyl-1,4-benzoquinon-2-yl)-7-phenylheptanoic acid] | 58 | 77 | 94 | 72 | 88 | 88 | 81 | 39.3 ± 7.4 | 8.4 | 7.5 | 21 | 47 | 49 | 77 | 88 ± 2 | 38 ± 3 | 16 ± 6
CC1=C(C)C(=O)C(C(CCCCCC(=O)O)c2ccc(C)cc2)=C(C)C1=O (stereo not shown) [Compound No. 93] | 73 | 83 | 85 | 53 | 10 | 47 | 7 | 26.2 ± 4.9 | 13.6 | 23.1 | 14 | 43 | -6 | 56 | 91 ± 3 | 33 ± 12 | 9 ± 6
